# Results from patent US10285979B2, “Breast cancer therapeutic agent containing 5′-hydroxy-5-nitro-indirubin-3′-oxime as active ingredient” (ANYGEN CO., LTD., priority 2016, dated 2019).
# Read-outs that look alike come from different tables or passages of the source.
# Assays:
# [1] = tested on: ER positive breast cancer cell lines; conditions: 3 types of ER positive breast cancer cell lines
# [2] = tested on: transplanted A549 cell tumor; conditions: in vivo; cited from earlier work
# [3] = tested on: MDA-MB-231 triple negative breast cancer cells
# Source text: After implanting MDA-MB-231 triple negative breast cancer cells to the nude mouse, the tumor has been grown to the 200 mm^3 volume. […] The tumor growth has been observed for 27 days.
# [4] = tested on: Imatinib-resistant K562 cells; conditions: in vitro and in vivo systems; cited from earlier work
# cyclin B1 expression = conditions: western blot; G2/M phase
# Source text: (§1) Further, we have investigated the cell cycles of MDA-MB-231 breast cancer cell line through Flow cytometry analysis.
# [5] = tested on: MDA-MB-231 breast cancer cell line; conditions: flow cytometry
# Source text: as §1
# [6] = tested on: triple negative cell lines; conditions: 7 of 10 types of triple negative cell lines
# HOP-92 = conditions: 10 μM; non-small cell lung cancer cell line HOP-92
# Source text: (§2) If the growth percent is 0%, it means that no further growth of cancer cells occurs, which is an ideal case.
# TK-10 = conditions: 10 μM; renal cell carcinoma cell line TK-10
# Source text: as §2
# NCI-H522 = conditions: 10 μM; non-small cell lung cancer cell line NCI-H522
# Source text: as §2
# NCI/ADR/RES = conditions: 10 μM; ovarian cancer cell line NCI/ADR/RES
# Source text: as §2
# HCT-15 = conditions: 10 μM; colorectal cancer cell line HCT-15
# Source text: as §2
# SK-MEL-4 = conditions: 10 μM; malignant melanoma cell line SK-MEL-4
# Source text: as §2
# SK-MEL-28 = conditions: 10 μM; malignant melanoma cell line SK-MEL-28
# Source text: as §2
# HCC-2998 = conditions: 10 μM; colorectal cancer cell line HCC-2998
# Source text: as §2
# UACC-62 = conditions: 10 μM; malignant melanoma cell line UACC-62
# Source text: as §2
# LOX IMVI = conditions: 10 μM; malignant melanoma cell line LOX IMVI
# Source text: as §2
# K-562 = conditions: 10 μM; leukemia cell line K-562
# Source text: as §2
# SN12C = conditions: 10 μM; renal cell carcinoma cell line SN12C
# Source text: as §2
# UO-31 = conditions: 10 μM; renal cell carcinoma cell line UO-31
# Source text: as §2
# HS 578T = conditions: 10 μM; breast cancer cell line HS 578T
# Source text: as §2
# MCF-7 = conditions: 10 μM; breast cancer cell line MCF-7
# Source text: as §2
# 786-0 = conditions: 10 μM; renal cell carcinoma cell line 786-0
# Source text: as §2
# HT29 = conditions: 10 μM; colorectal cancer cell line HT29
# Source text: as §2
# MALME-3M = conditions: 10 μM; malignant melanoma cell line MALME-3M
# Source text: as §2
# OVCAR-4 = conditions: 10 μM; ovarian cancer cell line OVCAR-4
# Source text: as §2
# DU-145 = conditions: 10 μM; prostate cancer cell line DU-145
# Source text: as §2
# HL-60(TB) = conditions: 10 μM; leukemia cell line HL-60(TB)
# [7] = tested on: KB oral cavity cancer cells
# Protocol: The tumor has been grown after injecting KB oral cavity cancer cells (10×10^6 cells/0.1 ml of non-serum matrigel medium) to the nude mouse. […] The tumor growth has been observed for 28 days.
# The tumor volume and shape in the nude mouse have been observed for 28 days.
# A549 lung cancer cells = tested on: A549 lung cancer cells
# Source text: The tumor has been grown after injecting A549 lung cancer cells to the nude mouse. […] The tumor growth has been observed for 27 days.
# The tumor volume and shape in the nude mouse have been observed for 27 days.
# [8] = tested on: A549 human non-small cell lung cancer cells; conditions: cited from earlier work
smiles,measurement,setting,value
"O=C1Nc2ccc([N+](=O)[O-])cc2C1=C1Nc2ccc(O)cc2C1=NO [AGM-130, (2′Z 3′E)-5′-hydroxy-5-nitro indirubin oxime]",IC50,[1],< 1000 nM
same,tumor growth,[2],dose-dependently suppresses
same,tumor volume reduction compared to control group,[3]; 10 mg/kg intraperitoneally,about 40%
same,"volume of tumor, Mean ± S.E.","[3]; 10 mg/kg intraperitoneally twice a week, day 0",268.0 ± 6.1
same,"volume of tumor, Mean ± S.E.","[3]; 10 mg/kg intraperitoneally twice a week, day 3",369.7 ± 5.0
same,"volume of tumor, Mean ± S.E.","[3]; 10 mg/kg intraperitoneally twice a week, day 6",474.3 ± 6.6
same,"volume of tumor, Mean ± S.E.","[3]; 10 mg/kg intraperitoneally twice a week, day 9",634.9 ± 36.2
same,"volume of tumor, Mean ± S.E.","[3]; 10 mg/kg intraperitoneally twice a week, day 12",813.5 ± 29.0
same,"volume of tumor, Mean ± S.E.","[3]; 10 mg/kg intraperitoneally twice a week, day 15",985.6 ± 44.8
same,"volume of tumor, Mean ± S.E.","[3]; 10 mg/kg intraperitoneally twice a week, day 18",1095.7 ± 54.2
same,"volume of tumor, Mean ± S.E.","[3]; 10 mg/kg intraperitoneally twice a week, day 21",1119.8 ± 57.7
same,"volume of tumor, Mean ± S.E.","[3]; 10 mg/kg intraperitoneally twice a week, day 24",1242.1 ± 76.0
same,"volume of tumor, Mean ± S.E.","[3]; 10 mg/kg intraperitoneally twice a week, day 27",1484.9 ± 86.8
same,tumor volume reduction compared to control group,[3]; 20 mg/kg intraperitoneally,about 64%
same,"volume of tumor, Mean ± S.E.","[3]; 20 mg/kg intraperitoneally twice a week, day 0",248.0 ± 11.0
same,"volume of tumor, Mean ± S.E.","[3]; 20 mg/kg intraperitoneally twice a week, day 3",295.4 ± 22.0
same,"volume of tumor, Mean ± S.E.","[3]; 20 mg/kg intraperitoneally twice a week, day 6",364.9 ± 23.5
same,"volume of tumor, Mean ± S.E.","[3]; 20 mg/kg intraperitoneally twice a week, day 9",457.4 ± 47.3
same,"volume of tumor, Mean ± S.E.","[3]; 20 mg/kg intraperitoneally twice a week, day 12",559.5 ± 56.2
same,"volume of tumor, Mean ± S.E.","[3]; 20 mg/kg intraperitoneally twice a week, day 15",623.4 ± 51.5
same,"volume of tumor, Mean ± S.E.","[3]; 20 mg/kg intraperitoneally twice a week, day 18",668.5 ± 56.8
same,"volume of tumor, Mean ± S.E.","[3]; 20 mg/kg intraperitoneally twice a week, day 21",767.2 ± 106.7
same,"volume of tumor, Mean ± S.E.","[3]; 20 mg/kg intraperitoneally twice a week, day 24",833.1 ± 139.7
same,"volume of tumor, Mean ± S.E.","[3]; 20 mg/kg intraperitoneally twice a week, day 27",894.2 ± 151.6
same,tumor volume reduction compared to control group,[3]; 40 mg/kg intraperitoneally,about 70%
same,"volume of tumor, Mean ± S.E.","[3]; 40 mg/kg intraperitoneally twice a week, day 0",253.1 ± 8.5
same,"volume of tumor, Mean ± S.E.","[3]; 40 mg/kg intraperitoneally twice a week, day 3",313.3 ± 9.7
same,"volume of tumor, Mean ± S.E.","[3]; 40 mg/kg intraperitoneally twice a week, day 6",327.5 ± 19.1
same,"volume of tumor, Mean ± S.E.","[3]; 40 mg/kg intraperitoneally twice a week, day 9",372.4 ± 8.3
same,"volume of tumor, Mean ± S.E.","[3]; 40 mg/kg intraperitoneally twice a week, day 12",444.8 ± 7.3
same,"volume of tumor, Mean ± S.E.","[3]; 40 mg/kg intraperitoneally twice a week, day 15",481.9 ± 39.1
same,"volume of tumor, Mean ± S.E.","[3]; 40 mg/kg intraperitoneally twice a week, day 18",532.7 ± 27.6
same,"volume of tumor, Mean ± S.E.","[3]; 40 mg/kg intraperitoneally twice a week, day 21",620.1 ± 45.2
same,"volume of tumor, Mean ± S.E.","[3]; 40 mg/kg intraperitoneally twice a week, day 24",686.2 ± 85.6
same,"volume of tumor, Mean ± S.E.","[3]; 40 mg/kg intraperitoneally twice a week, day 27",730.8 ± 73.9
same,tumor volume reduction compared to control group,[3]; control group paclitaxel (5 mg/kg),about 14%
same,viability of cells,[4],efficiently decreases the viability
same,cyclin B1 expression,cyclin B1 expression,remarkably reduced
same,cell cycle phases,[5],decreased G1 phase and increased G2/M phase
same,IC50,[6],< 1000 nM
same,Growth percent,HOP-92,−3.09%
same,Growth percent,TK-10,49.89%
same,Growth percent,NCI-H522,−79.07%
same,Growth percent,NCI/ADR/RES,42.05%
same,Growth percent,HCT-15,10.28%
same,Growth percent,SK-MEL-4,−40.95%
same,Growth percent,SK-MEL-28,−11.04%
same,Growth percent,HCC-2998,8.93%
same,Growth percent,UACC-62,−34.39%
same,Growth percent,LOX IMVI,−32.44%
same,Growth percent,K-562,20.90%
same,Growth percent,SN12C,23.68%
same,Growth percent,UO-31,−1.14%
same,Growth percent,HS 578T,1.21%
same,Growth percent,MCF-7,2.75%
same,Growth percent,786-0,4.21%
same,Growth percent,HT29,69.21%
same,Growth percent,MALME-3M,11.73%
same,Growth percent,OVCAR-4,19.65%
same,Growth percent,DU-145,6.72%
same,Growth percent,HL-60(TB),3.67%
same,volume of tumor,"[7]; 5/10/20 mg/kg intraperitoneally every other day, FIG. 11",cannot be reduced significantly
same,reduction of volume of tumor compared to paclitaxel,[7]; paclitaxel 10 mg/kg positive control,cannot result in significant reduction
same,volume of tumor,"A549 lung cancer cells; 10/20/40 mg/kg intraperitoneally every other day, FIG. 14",cannot be reduced significantly
same,weight of tumor,"A549 lung cancer cells; 10/20/40 mg/kg intraperitoneally, FIG. 15a",cannot be reduced significantly
same,apoptosis in tumor (TUNEL assay),"A549 lung cancer cells; paraffin embedded tumor region, compared to vehicle, FIG. 15b",induces the apoptosis
same,cell cycle,[8],arrests the cell cycle of G2/M phase
same,proliferation,[8],significantly inhibits the proliferation
